{"source": "ChEMBL document CHEMBL3108728", "about": "“Anti-inflammatory activity of rhamnetin and a model of its binding to c-Jun NH2-terminal kinase 1 and p38 MAPK” (J Nat Prod, 2014)", "key": {"RAW264.7 [1]": {"system": "RAW264.7", "assay": "Antiinflammatory activity against mouse RAW264.7 cells assessed as reduction of LPS-induced mMIP-2 level at 20 uM after 24 hrs by ELISA relative to untreated control", "assay_type": "functional", "parameters": "scale not given: the % may be the effect or the level left"}, "RAW264.7 [2]": {"system": "RAW264.7", "assay": "Antiinflammatory activity against mouse RAW264.7 cells assessed as reduction of LPS-induced NO production at 10 uM after 24 hrs", "assay_type": "functional", "parameters": "scale not given: the % may be the effect or the level left"}, "RAW264.7 [3]": {"system": "RAW264.7", "assay": "Antiinflammatory activity against mouse RAW264.7 cells assessed as reduction of IFNgamma-induced NO production at 20 uM after 24 hrs", "assay_type": "functional", "parameters": "scale not given: the % may be the effect or the level left"}, "[4]": {"target": "Mitogen-activated protein kinase 8 (Mus musculus) (UniProt Q91Y86)", "sequence (Q91Y86 whole entry)": "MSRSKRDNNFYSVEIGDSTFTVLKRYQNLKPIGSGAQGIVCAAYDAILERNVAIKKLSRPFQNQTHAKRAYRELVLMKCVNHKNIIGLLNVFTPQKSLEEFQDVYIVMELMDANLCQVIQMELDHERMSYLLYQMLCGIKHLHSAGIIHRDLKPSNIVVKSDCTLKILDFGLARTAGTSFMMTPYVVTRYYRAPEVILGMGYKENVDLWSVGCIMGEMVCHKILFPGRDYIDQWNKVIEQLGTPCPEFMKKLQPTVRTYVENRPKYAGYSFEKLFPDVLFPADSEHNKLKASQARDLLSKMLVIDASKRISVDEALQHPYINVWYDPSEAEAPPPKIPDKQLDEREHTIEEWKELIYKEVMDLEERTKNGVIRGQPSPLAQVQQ", "assay": "Inhibition of IFNgamma-induced JNK phosphorylation in mouse RAW264.7 cells at 20 uM by Western blotting analysis relative to untreated control", "assay_type": "cell-based"}, "[5]": {"target": "T1, Monocyte differentiation antigen CD14 (Mus musculus) (UniProt P10810)", "T1 sequence (whole entry)": "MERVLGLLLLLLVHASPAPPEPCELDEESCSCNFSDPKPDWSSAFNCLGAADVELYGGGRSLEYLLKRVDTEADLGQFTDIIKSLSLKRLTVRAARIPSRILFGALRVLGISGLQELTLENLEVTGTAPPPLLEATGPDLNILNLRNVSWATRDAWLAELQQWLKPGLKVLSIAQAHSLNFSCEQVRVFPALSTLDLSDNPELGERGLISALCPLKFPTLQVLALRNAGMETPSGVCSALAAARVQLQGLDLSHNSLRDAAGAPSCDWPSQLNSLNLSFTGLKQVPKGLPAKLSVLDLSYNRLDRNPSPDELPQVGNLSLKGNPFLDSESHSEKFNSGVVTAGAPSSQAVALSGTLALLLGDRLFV", "assay": "Inhibition of CD14 in mouse RAW264.7 cells at 20 uM by Western blotting analysis", "assay_type": "cell-based"}, "RAW264.7 [6]": {"system": "RAW264.7", "assay": "Cytotoxicity against mouse RAW264.7 cells up to 12.5 uM after 24 hrs by MTT assay relative to untreated control", "assay_type": "cell-based", "details": "raw264.7, 24 h"}, "RAW264.7 [7]": {"system": "RAW264.7", "assay": "Antiinflammatory activity against mouse RAW264.7 cells assessed as inhibition of LPS-induced TNFalpha production at 20 uM after 24 hrs by ELISA", "assay_type": "functional", "details": "RAW264.7, 24 h"}, "[8]": {"target": "Mitogen-activated protein kinase 8 (Homo sapiens) (UniProt P45983)", "sequence (P45983 whole entry)": "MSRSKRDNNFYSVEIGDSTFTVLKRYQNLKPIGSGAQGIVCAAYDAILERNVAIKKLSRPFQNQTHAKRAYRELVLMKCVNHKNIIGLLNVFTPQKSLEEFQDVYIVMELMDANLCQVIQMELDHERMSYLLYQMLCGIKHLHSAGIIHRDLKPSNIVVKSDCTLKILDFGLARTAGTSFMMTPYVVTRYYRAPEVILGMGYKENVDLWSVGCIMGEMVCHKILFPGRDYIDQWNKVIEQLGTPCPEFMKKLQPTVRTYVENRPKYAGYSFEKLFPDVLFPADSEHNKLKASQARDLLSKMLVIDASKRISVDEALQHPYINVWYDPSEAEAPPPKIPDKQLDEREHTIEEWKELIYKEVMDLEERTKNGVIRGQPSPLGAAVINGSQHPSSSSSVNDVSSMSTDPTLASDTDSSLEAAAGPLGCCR", "assay": "Binding affinity to human C-terminal His6-tagged JNK1alpha1 (1 to 364) expressed in Escherichia coli by spectrofluorometry"}, "[9]": {"target": "Mitogen-activated protein kinase 8 (Mus musculus) (UniProt Q91Y86)", "assay": "Inhibition of LPS-induced JNK phosphorylation in mouse RAW264.7 cells at 20 uM by Western blotting analysis", "assay_type": "cell-based"}, "HaCaT": {"system": "HaCaT", "assay": "Cytotoxicity against human HaCaT cells at 100 uM after 24 hrs by MTT assay relative to untreated control", "assay_type": "cell-based"}, "RAW264.7 [10]": {"system": "RAW264.7", "assay": "Antiinflammatory activity against mouse RAW264.7 cells assessed as reduction of LPS-induced NO production at 20 uM after 24 hrs", "assay_type": "functional", "parameters": "scale not given: the % may be the effect or the level left"}, "[11]": {"target": "T2, MAP kinase p38 (Homo sapiens) (UniProt O15264+Q15759+Q16539+P53778)", "assay": "Binding affinity to human p38 MAPK expressed in Escherichia coli by circular dichroism method"}, "[12]": {"target": "Mitogen-activated protein kinase 3 (Mus musculus) (UniProt Q63844)", "sequence (Q63844 whole entry)": "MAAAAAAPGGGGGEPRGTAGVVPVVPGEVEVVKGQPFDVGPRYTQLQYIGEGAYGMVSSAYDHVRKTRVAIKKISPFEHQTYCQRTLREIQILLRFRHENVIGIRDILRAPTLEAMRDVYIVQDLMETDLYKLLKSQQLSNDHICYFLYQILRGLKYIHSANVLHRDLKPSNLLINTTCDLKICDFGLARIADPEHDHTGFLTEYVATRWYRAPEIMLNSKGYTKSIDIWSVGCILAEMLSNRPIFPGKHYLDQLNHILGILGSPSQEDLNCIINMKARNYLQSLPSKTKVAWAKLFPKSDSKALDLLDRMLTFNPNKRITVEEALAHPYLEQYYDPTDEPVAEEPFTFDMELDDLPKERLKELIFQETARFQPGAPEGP", "assay": "Inhibition of LPS-induced ERK phosphorylation in mouse RAW264.7 cells at 20 uM by Western blotting analysis", "assay_type": "cell-based"}, "RAW264.7 [13]": {"system": "RAW264.7", "assay": "Antiinflammatory activity against mouse RAW264.7 cells assessed as inhibition of LPS-induced TNFalpha production at 10 uM after 24 hrs by ELISA", "assay_type": "functional", "details": "RAW264.7, 24 h"}, "[14]": {"target": "T2, MAP kinase p38 (Homo sapiens)", "assay": "Binding affinity to human p38 MAPK expressed in Escherichia coli by spectrofluorometry"}, "[15]": {"target": "T3, MAP kinase p38 (Mus musculus) (UniProt P47811+O08911+Q9WUI1+Q9Z1B7)", "assay": "Inhibition of IFNgamma-induced p38 MAPK phosphorylation in mouse RAW264.7 cells at 20 uM by Western blotting analysis relative to untreated control", "assay_type": "cell-based"}, "RAW264.7 [16]": {"system": "RAW264.7", "assay": "Antiinflammatory activity against mouse RAW264.7 cells assessed as reduction of LPS-induced mMIP-2 mRNA expression at 25 uM after 3 hrs by RT-PCR analysis relative to untreated control", "assay_type": "functional, cell-based"}, "[17]": {"assay": "Cytotoxicity against mouse RAW264.7 cells assessed as cell survival at 100 uM after 24 hrs by MTT assay relative to untreated control", "assay_type": "cell-based", "details": "read-out: Survival"}, "[18]": {"target": "T3, MAP kinase p38 (Mus musculus)", "assay": "Inhibition of LPS-induced p38 MAPK phosphorylation in mouse RAW264.7 cells at 20 uM by Western blotting analysis", "assay_type": "cell-based"}, "RAW264.7 [19]": {"system": "RAW264.7", "assay": "Antiinflammatory activity against mouse RAW264.7 cells assessed as reduction of LPS-induced mMIP-1 mRNA expression at 25 uM after 3 hrs by RT-PCR analysis relative to untreated control", "assay_type": "functional", "parameters": "scale not given: the % may be the effect or the level left"}, "RAW264.7 [20]": {"system": "RAW264.7", "assay": "Antiinflammatory activity against mouse RAW264.7 cells assessed as reduction of IFNgamma-induced NO production at 10 uM after 24 hrs", "assay_type": "functional", "parameters": "scale not given: the % may be the effect or the level left"}, "RAW264.7 [21]": {"system": "RAW264.7", "assay": "Antiinflammatory activity against mouse RAW264.7 cells assessed as reduction of LPS-induced mTNFalpha mRNA expression at 25 uM after 3 hrs by RT-PCR analysis relative to untreated control", "assay_type": "functional, cell-based"}, "RAW264.7 [22]": {"system": "RAW264.7", "assay": "Antiinflammatory activity against mouse RAW264.7 cells assessed as inhibition of LPS-induced COX2 protein expression at 20 uM by Western blotting analysis", "assay_type": "functional"}, "[23]": {"target": "Mitogen-activated protein kinase 3 (Mus musculus) (UniProt Q63844)", "assay": "Inhibition of IFNgamma-induced ERK phosphorylation in mouse RAW264.7 cells at 20 uM by Western blotting analysis relative to untreated control", "assay_type": "cell-based"}, "RAW264.7 [24]": {"system": "RAW264.7", "assay": "Antiinflammatory activity against mouse RAW264.7 cells assessed as reduction of LPS-induced mMIP-2 level at 10 uM after 24 hrs by ELISA relative to untreated control", "assay_type": "functional", "parameters": "scale not given: the % may be the effect or the level left"}, "[25]": {"target": "Mitogen-activated protein kinase 8 (Homo sapiens) (UniProt P45983)", "assay": "Binding affinity to human C-terminal His6-tagged JNK1alpha1 (1 to 364) expressed in Escherichia coli by circular dichroism method"}}, "note": "Calls of active or inactive are those of the source. The rule behind the calls is not given here."}
{"compound": "COc1cc(O)c2c(=O)c(O)c(-c3ccc(O)c(O)c3)oc2c1", "note": "[RHAMNETIN]", "values": [{"measurement": "Activity", "setting": "RAW264.7 [1]", "result": 77, "unit": "%"}, {"measurement": "Activity", "setting": "RAW264.7 [2]", "result": 62, "unit": "%"}, {"measurement": "Activity", "setting": "RAW264.7 [3]", "result": 91.5, "unit": "%"}, {"measurement": "inhibition", "setting": "[4]", "result": 92, "unit": "%"}, {"measurement": "inhibition", "setting": "[5]", "result": "inactive"}, {"measurement": "Activity", "setting": "RAW264.7 [6]", "result": "Non-toxic"}, {"measurement": "inhibition at 20 µM", "setting": "RAW264.7 [7]", "result": 63, "unit": "%"}, {"measurement": "K", "setting": "[8]", "result": 9.7, "unit": "×10⁸ /M"}, {"measurement": "inhibition", "setting": "[9]", "result": 64, "unit": "%"}, {"measurement": "Activity", "setting": "HaCaT", "result": "Non-toxic"}, {"measurement": "Activity", "setting": "RAW264.7 [10]", "result": 74, "unit": "%"}, {"measurement": "Activity", "setting": "[11]", "result": "Active"}, {"measurement": "inhibition", "setting": "[12]", "result": 27, "unit": "%"}, {"measurement": "inhibition at 10 µM", "setting": "RAW264.7 [13]", "result": 54, "unit": "%"}, {"measurement": "K", "setting": "[14]", "result": 2.31, "unit": "×10⁷ /M"}, {"measurement": "inhibition", "setting": "[15]", "result": 58, "unit": "%"}, {"measurement": "Activity", "setting": "RAW264.7 [16]", "result": "Active"}, {"measurement": "viability at 24 h, 100 µM", "setting": "[17]", "result": "> 55", "unit": "%"}, {"measurement": "inhibition", "setting": "[18]", "result": 51, "unit": "%"}, {"measurement": "Activity", "setting": "RAW264.7 [19]", "result": 96.2, "unit": "%"}, {"measurement": "Activity", "setting": "RAW264.7 [20]", "result": 73.2, "unit": "%"}, {"measurement": "Activity", "setting": "RAW264.7 [21]", "result": "Active"}, {"measurement": "inhibition at 20 µM", "setting": "RAW264.7 [22]", "result": 76, "unit": "%"}, {"measurement": "inhibition", "setting": "[23]", "result": 38, "unit": "%"}, {"measurement": "Activity", "setting": "RAW264.7 [24]", "result": 42, "unit": "%"}, {"measurement": "Activity", "setting": "[25]", "result": "Active"}]}
